# Test results taken from patent US12681018B2, “Photoactive fluorescent compounds and use thereof for labeling of proteins” (EIKON THERAPEUTICS, INC., priority 2021, dated 2026).
# Like-named read-outs stand apart in the source and are kept apart here.
# Key:
# [1] = biological target: T1, Estrogen Receptor-HaloTag (ER-Halo) fusion (Rhodococcus rhodochrous, UniProt P0A3G2, A155T/A167V/A172T/A224E/C128F/C176G/D78G/E160K/E257K/H272N/K175M/K195N/L47V/L88M/N227D/P291S/S58T/T264A/Y273L/Y87F); type: cell-based; details: tracks in WT U2OS cells, ratio with PA-JF549 in the numerator, 100 nM, 1 hr
# T1 construct: expressed in transfected cells; host or cells: U2OS
# T1 sequence (P03372 whole entry, the tested form may be a part): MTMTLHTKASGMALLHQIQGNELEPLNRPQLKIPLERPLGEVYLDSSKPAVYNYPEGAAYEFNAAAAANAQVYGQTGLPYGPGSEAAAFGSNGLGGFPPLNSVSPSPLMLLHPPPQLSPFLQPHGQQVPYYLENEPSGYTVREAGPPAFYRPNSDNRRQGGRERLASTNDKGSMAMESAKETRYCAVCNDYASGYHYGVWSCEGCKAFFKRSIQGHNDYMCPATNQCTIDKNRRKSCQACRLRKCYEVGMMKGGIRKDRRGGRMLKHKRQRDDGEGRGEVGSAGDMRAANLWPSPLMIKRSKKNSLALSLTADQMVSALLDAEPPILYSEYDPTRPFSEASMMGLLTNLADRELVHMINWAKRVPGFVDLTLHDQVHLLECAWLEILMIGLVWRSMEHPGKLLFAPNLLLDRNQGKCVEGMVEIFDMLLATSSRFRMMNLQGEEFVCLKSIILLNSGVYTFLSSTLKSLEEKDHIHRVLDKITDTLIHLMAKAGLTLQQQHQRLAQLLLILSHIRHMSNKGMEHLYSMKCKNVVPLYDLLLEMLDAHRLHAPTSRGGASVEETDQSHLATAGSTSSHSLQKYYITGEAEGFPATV
# T1 sequence (P0A3G2 other isoform, or with tags, fused parts or gaps with the stated changes): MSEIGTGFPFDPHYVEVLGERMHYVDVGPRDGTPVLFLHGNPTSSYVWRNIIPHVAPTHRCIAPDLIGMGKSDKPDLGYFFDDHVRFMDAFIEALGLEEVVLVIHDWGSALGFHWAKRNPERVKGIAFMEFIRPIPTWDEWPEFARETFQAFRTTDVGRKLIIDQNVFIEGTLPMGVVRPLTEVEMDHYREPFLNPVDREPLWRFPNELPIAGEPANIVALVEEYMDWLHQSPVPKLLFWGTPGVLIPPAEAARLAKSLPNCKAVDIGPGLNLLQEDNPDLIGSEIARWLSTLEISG
# Experimental: Using the methods described in Tables 4a and 4b above, labelling specificity of the compound of Examples 1-24 was measured and compared to PA-JF549. U2OS cells wild type or expressing ER-HaloTag fusion were incubated with PA-JF549 or Examples 1-24 for 1 hr. […] Labeling specificity, as measured by the fold reduction in nonspecific labeling of WT cells, was calculated by number of tracks measured in WT cells for Examples 1-24 compared to the number of tracks in WT cells for PA-JF549, expressed as the ratio with PA-JF549 in the numerator.
# [2] = Kinetic solubility in PBS at 7.4; type: physicochemical; details: PBS buffer, aqueous buffer, kinetic from dmso stock, pH 7.4, 500 μM final concentration, 1.5 hours at room temperature, average of three runs, read-out: Ksol
# Experimental: 190 μL of buffer solution (PBS, pH 7.4) was added to wells on a 96-well Millipore Solubility filter plate. Then 10 μL of test compound in DMSO (10 mM) were added to give final concentration of 500 μM.
# The filter plate was shaken for 1.5 hours at room temperature in the dark and samples were filtered via a vacuum system into a fresh 96-well plate. Samples were diluted to 500 μM (highest concentration) in DMSO and further diluted (1:10) to provide three-point calibration curve. Absorbance was measured using HPLC/UV analysis at 220 nm, 254 nm, and 280 nm.
# [3] = system: histone H2B-HaloTag fusion; assay: Halo-protein specificity (Specificity Factor), single-molecule imaging in U2OS cells; type: cell-based; details: ratio of slope (spots vs dye concentration, 1-200 nM, 45 minutes) relative to PA-JF549
# Experimental: The following day the cells were incubated with PA-JF549 or Examples 1-4 at a range of concentrations between 200 nM and 1 nM for 45 minutes. […] Samples were imaged on a Nikon Ti2 microscope with fiber-optic coupled illumination source. […] Images were collected every 10 msec for 5 seconds per field of view and pulses of ascending intensity 405 nm light (between 0 and 12 mW at the coverslip) were used to photoactivate dye molecules.
# For each dye compound, a linear regression was used to determine the relationship between the concentration of dye compound and the number of fluorescence spots detected on the microscope, where in WT cells the ideal dye would have no correlation between compound concentration and number of slots measured. The Specificity Factor was calculated as the ratio of the slope of the compound in question relative to the slope calculated for PA-JF549 and is shown in Table 3 below.
Structure (SMILES),Fold reduction in nonspecific labeling ([1]; Table 4a),Fold reduction in nonspecific labeling ([1]; Table 4b),solubility kinetic at 1.5 h [2] [µM],Specificity Factor [3]
"COC(=O)C1CN(c2ccc3c(c2)Oc2cc(N4CC(C(=O)OC)C4)ccc2C32C(=[N+]=[N-])C(=O)c3ccc(C(=O)NCCOCCOCCCCCCCl)cc32)C1 [Example 1, dimethyl 1,1′-(6-((2-(2-((6-chlorohexyl)oxy)ethoxy)ethyl)carbamoyl)-2-diazo-3-oxo-2,3-dihydrospiro[indene-1,9′-xanthene]-3′,6′-diyl)bis(azetidine-3-carboxylate)]",>10,>10,58.4,2.66
"CN(C)C(=O)C1CN(c2ccc3c(c2)Oc2cc(N4CC(C(=O)N(C)C)C4)ccc2C32C(=[N+]=[N-])C(=O)c3ccc(C(=O)NCCOCCOCCCCCCCl)cc32)C1 [Example 4, 1,1′-(6-((2-(2-((6-chlorohexyl)oxy)ethoxy)ethyl)carbamoyl)-2-diazo-3-oxo-2,3-dihydrospiro[indene-1,9′-xanthene]-3′,6′-diyl)bis(N,N-dimethylazetidine-3-carboxamide)]",>10,>10,3.69,23.8
"COC[C@H]1CCN1c1ccc2c(c1)Oc1cc(N3CC[C@@H]3COC)ccc1C21C(=[N+]=[N-])C(=O)c2ccc(C(=O)NCCOCCOCCCCCCCl)cc21 [Example 3, N-(2-(2-((6-chlorohexyl)oxy)ethoxy)ethyl)-2-diazo-3′,6′-bis((R)-2-(methoxymethyl)azetidin-1-yl)-3-oxo-2,3-dihydrospiro[indene-1,9′-xanthene]-6-carboxamide]",1-5,1-5,39.5,2.07
"[N-]=[N+]=C1C(=O)c2ccc(C(=O)NCCOCCOCCCCCCCl)cc2C12c1ccc(N3CC(C(=O)O)C3)cc1Oc1cc(N3CC(C(=O)O)C3)ccc12 [Example 2, 1,1′-(6-((2-(2-((6-chlorohexyl)oxy)ethoxy)ethyl)carbamoyl)-2-diazo-3-oxo-2,3-dihydrospiro[indene-1,9′-xanthene]-3′,6′-diyl)bis(azetidine-3-carboxylic acid)]",>10,>10,481,<1
